GI50 and TGI data for 7 compounds are collected here from PubChem BioAssay (NCI).

The term GI50 denotes the concentration giving 50% growth inhibition. In general, TGI refers to the concentration at which net growth stops.

SMILES strings stand for the structures. Several values for one entry are separate records, joined by “and”; a condition that tells them apart may be missing. Equal values may be shown once.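 How tested: cells in 96-well plates exposed to compound for 48 hours at five concentrations. Here, GI50 denotes the concentration required for 50% inhibition of growth. TGI: concentration producing complete growth inhibition.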

Common to all, as to test: DTP human tumour cell line panel, 48 h
For test [1], the system named is BT-549 breast.
Test [2] deals with CCRF-CEM leukemia.
The subject of test [3] is SK-MEL-28 melanoma.
Test [4] has as its system SF-539 CNS.
Test [5] relates to OVCAR-8 ovarian.
Test [6] deals with T-47D breast.
Test [7] has as its system UO-31 renal.
In test [8] the test system is NCI-H226 lung.
Test [9] concerns TK-10 renal.
Test [10] relates to ACHN renal.

With `Cc1cnc2n(c1=O)Cc1ccccc1CO2`, the GI50 is 15.5 µM in test [1]; 2.35 µM in [2]; 20.9 µM in test [3]; 24 µM in test [4]; 23.4 µM in test [5]; 6.79 µM in test [6]. Further, the GI50 in test [7] was 18.2 µM; in [8], 20.4 µM; in test [9], 20.9 µM; in test [10], 17.4 µM. Moreover, the concentration for total growth inhibition (TGI) in test [1] came to 32.8 µM; in test [2], 10.5 µM; in [3] it was 45.1 µM; in test [4], 60 µM; in [5] it was 82.5 µM; in [6], 29.3 µM. The TGI amounted to 44.5 µM in test [7], 52.5 µM in test [8], 49.4 µM in [9] and 33.8 µM in test [10].

Take `Nc1c(C(=O)Nc2cccc3ccccc23)sc2nc3c(cc12)CCCCCC3`: the GI50 in test [1] was 0.954 µM; in test [2], 1.65 µM; in test [3] it was above 50 µM; in test [4] it was 1.24 µM; in [5], 2 µM; in test [6], 25.1 µM. In addition, the GI50 in test [7] is 5.6 µM; in [8] it was 5.5 µM; in [9], above 50 µM; in [10] it was 2.79 µM. Moreover, the TGI in test [1] was 4.81 µM; in test [2] it was above 50 µM; in test [3] it was above 50 µM; in test [4], above 50 µM; in [5], above 50 µM; in test [6], above 50 µM. Besides, the TGI in test [7], in test [8], in test [9] and in test [10] was above 50 µM each time.

Consider `COc1nc(C(Cl)(Cl)Cl)c(Cl)c(OC)c1Cl`, for which the TGI in test [1] is 71.3 µM; in test [2], > 64.4 µM and 121 µM; in test [3], > 83.5 µM and 75.6 µM; in test [4], > 86.8 µM and 77.2 µM; in [5] it was 55.6 µM; in test [6], 77.6 µM. Also, the TGI is > 64.3 µM and 75.4 µM in test [7]; 71.5 µM in test [8]; 94.5 µM in test [9]; > 54.1 µM and 73.5 µM in [10]. In addition, the GI50 was above 45.5 µM in test [2]; above 50.4 µM in [3]; above 52 µM in test [4]; above 61.5 µM in [5]; above 91.6 µM in test [9].

Take `CCc1cc(Cc2cc(CC)cc(C(C)(C)C)c2O)c(O)c(C(C)(C)C)c1`: the GI50 is 2.16 µM in [1]; 5.16 µM in [2]; 2.39 µM in test [3]; 2.51 µM in test [4]; 3.45 µM in test [5]; 2.59 µM in [6]. The GI50 in test [7] was 2.79 µM; in test [8] it was 4.88 µM; in test [9], 3.03 µM; in test [10], 3.27 µM. In addition, the TGI was 7.76 µM in [1]; above 100 µM in test [2]; 7.53 µM in test [3]; 5.98 µM in test [4]; 12.3 µM in test [5]; 7.87 µM in [6]. The TGI in test [7] was 11.7 µM; in test [8], 16.1 µM; in test [9], 9.41 µM; in [10], 10.4 µM.

Consider `COc1cc(-c2nc3cc(Cl)c(Cl)cc3[nH]2)ccc1OCC(=O)N=Nc1c(O)[nH]c2ccccc12`, for which the GI50 in test [1] was 0.822 µM; in [2], 0.322 µM; in test [3] it was 1.38 µM; in test [4], 1.08 µM; in test [5], 0.327 µM; in test [6], 0.288 µM. Also, the GI50 in [7] was above 52.6 µM; in test [8], 1.04 µM; in test [9] it was 2.45 µM; in test [10] it was 2.11 µM. For the same compound, the TGI in [1] amounted to 2.29 µM; in test [2], 17.5 µM; in test [3], 2.68 µM; in [4], 2.29 µM; in [5], 1.59 µM; in test [6] it was 1.14 µM. In addition, the TGI in test [7] is above 100 µM; in [8], 2.67 µM; in test [9] it was 6.76 µM; in test [10], 13.8 µM.

In the case of `CCOc1ccc(-n2cc(-c3ccc(N(C)C)cc3)[n+]3c2CCCCC3)cc1`, the GI50 was 0.406 µM in test [1]; 1.08 µM in test [2]; 0.841 µM in test [3]; 2.26 µM in test [4]; 1.34 µM in [5]; 0.0692 µM in test [6]. Moreover, the GI50 in test [7] is 4.94 µM; in [8], 1.56 µM; in test [9], 0.827 µM; in test [10], 2.63 µM. In addition, the TGI is 29.1 µM in test [1]; above 100 µM in test [2]; above 81.9 µM in [3]; above 100 µM in test [4]; above 100 µM in test [5]; 68.5 µM in test [7]. For the same compound, the TGI is above 100 µM in test [8], 49 µM in [9] and above 100 µM in [10].

Regarding `COC(=O)/C=C/c1cc(OC)c2c(c1)[C@@H](C(=O)OC)[C@H](c1ccc(OC)c(OC)c1)O2`, the GI50 in test [1] was 4.88 µM; in test [2] it was 0.983 µM; in [3] it was 26.4 µM; in test [4] it was 1.22 µM; in [5], 4.53 µM; in [6] it was 4.99 µM. For the same compound, the GI50 in test [7] was 3.4 µM; in test [8], 38.4 µM; in [9] it was 62.7 µM; in test [10], 4.45 µM. Besides, the TGI in [1], in test [2], in [3], in [4], in test [5] and in test [6] was above 100 µM each time. Further, the TGI in test [7], in test [8], in [9] and in test [10] was above 100 µM in each case.
